“And” between values parts separate entries of the source, which are not always exact repeats. Equal values may be shown once.

For test [1], the target named is T1, Dihydrofolate reductase (Pneumocystis carinii, UniProt P16184).
T1 sequence (P16184 whole entry): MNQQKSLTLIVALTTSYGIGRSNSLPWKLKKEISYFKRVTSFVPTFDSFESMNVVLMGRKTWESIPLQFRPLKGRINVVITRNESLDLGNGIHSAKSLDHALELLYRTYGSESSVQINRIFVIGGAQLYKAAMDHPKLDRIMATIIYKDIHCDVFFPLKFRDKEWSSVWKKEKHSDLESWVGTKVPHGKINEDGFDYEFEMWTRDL
Kind of test: (§1) Inhibition of Pneumocystis carinii dihydrofolate reductase.

Test [2] addresses T2, Bifunctional dihydrofolate reductase-thymidylate synthase (Toxoplasma gondii, UniProt Q07422).
T2 sequence (Q07422 whole entry): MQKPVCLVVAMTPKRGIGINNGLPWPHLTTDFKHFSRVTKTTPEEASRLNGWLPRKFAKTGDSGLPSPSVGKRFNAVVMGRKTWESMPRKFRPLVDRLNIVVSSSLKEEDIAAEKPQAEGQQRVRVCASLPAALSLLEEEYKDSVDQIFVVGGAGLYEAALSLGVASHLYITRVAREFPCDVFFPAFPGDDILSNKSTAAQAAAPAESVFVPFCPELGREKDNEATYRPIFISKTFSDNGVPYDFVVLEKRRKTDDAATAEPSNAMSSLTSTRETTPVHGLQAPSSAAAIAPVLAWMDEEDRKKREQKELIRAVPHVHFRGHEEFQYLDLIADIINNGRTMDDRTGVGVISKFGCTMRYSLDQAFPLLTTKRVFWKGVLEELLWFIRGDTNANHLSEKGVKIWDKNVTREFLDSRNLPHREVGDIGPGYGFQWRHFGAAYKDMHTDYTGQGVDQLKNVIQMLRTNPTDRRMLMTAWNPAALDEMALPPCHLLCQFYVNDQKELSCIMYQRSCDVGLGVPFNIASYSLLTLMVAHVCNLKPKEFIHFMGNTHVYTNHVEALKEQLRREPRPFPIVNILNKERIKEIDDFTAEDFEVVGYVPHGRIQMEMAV
Kind of test: (§2) Inhibition of Toxoplasma gondii dihydrofolate reductase.

For test [3], the target named is T2, Bifunctional dihydrofolate reductase-thymidylate synthase. The test is described as §2. This is another data set of the same source.
In test [4] the target is T3, Dihydrofolate reductase (Rattus norvegicus, UniProt Q920D2).
T3 sequence (Q920D2 whole entry): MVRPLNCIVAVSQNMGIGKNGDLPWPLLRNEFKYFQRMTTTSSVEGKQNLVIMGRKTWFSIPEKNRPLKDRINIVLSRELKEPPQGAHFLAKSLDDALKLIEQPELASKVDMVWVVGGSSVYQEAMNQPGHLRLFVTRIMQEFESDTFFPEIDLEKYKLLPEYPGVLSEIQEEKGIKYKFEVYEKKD
In words: (§3) Inhibition of rat liver dihydrofolate reductase.

Test [5] deals with T3, Dihydrofolate reductase. Described as §3. This is another data set of the same source.
For test [6], the target named is T1, Dihydrofolate reductase. The description is as §1. This is another data set of the same source.

In the case of `COc1cc(OC)c(CN(C)c2ccc3nc(N)nc(N)c3c2)c(OC)c1`, the IC50 against Dihydrofolate reductase [1] is 116000 nM; in test [2], 950 nM; in test [3], 950 nM; on Dihydrofolate reductase [4], 22700 nM; on Dihydrofolate reductase [5], 22700 nM; against Dihydrofolate reductase [6], 116000 nM.
Consider `COc1ccccc1N(C)Cc1ccc2nc(N)nc(N)c2n1`, for which the IC50 at Dihydrofolate reductase [1] and at Dihydrofolate reductase [6] was 510 nM in each case.
`COc1ccccc1NCc1ccc2nc(N)nc(N)c2n1`: the IC50 against Dihydrofolate reductase [1] and at Dihydrofolate reductase [6] was 2700 nM in each case.
For the molecule `COc1cccc(NCc2ccc3nc(N)nc(N)c3n2)c1`, the IC50 on Dihydrofolate reductase [1] and on Dihydrofolate reductase [6] was 1700 nM throughout.
As to `CN(CC1CCc2nc(N)nc(N)c2C1)c1cccc2ccccc12` (stereo unspecified), it took 160 nM to reach half-maximal inhibition against Dihydrofolate reductase [5] (IC50).
As to `COc1ccc(N(C)Cc2ccc3nc(N)nc(N)c3n2)cc1`, the IC50 on Dihydrofolate reductase [1] and at Dihydrofolate reductase [6] was 250 nM throughout.
`Cc1c(C)c(-n2cccc2)c(C)c(C)c1NNCc1cnc2nc(N)nc(N)c2c1C`: the IC50 at Dihydrofolate reductase [1] is 620 nM; in test [2] it was 75 nM; in test [3], 75 nM; against Dihydrofolate reductase [4], 170 nM; against Dihydrofolate reductase [5] it was 170 nM; at Dihydrofolate reductase [6] it was 620 nM.
`Nc1nc(N)c2nc(CNc3cccc4ccccc34)ccc2n1`: the IC50 against Dihydrofolate reductase [1] and on Dihydrofolate reductase [6] was 230 nM each time.
With `COc1cc(N(C)CC2CCc3nc(N)nc(N)c3C2)cc(OC)c1OC` (stereo unspecified), at Dihydrofolate reductase [4], 38 nM corresponded to half-maximal inhibition (IC50).
As for `CN(Cc1ccc2nc(N)nc(N)c2n1)c1cc(Cl)c(Cl)c(Cl)c1`, the half-maximal inhibitory concentration (IC50) against Dihydrofolate reductase [1] and against Dihydrofolate reductase [6] was 250 nM each time.
Take `COc1ccc(NCc2ccc3nc(N)nc(N)c3n2)cc1OC`: the IC50 on Dihydrofolate reductase [1] and against Dihydrofolate reductase [6] was 900 nM throughout.
`COc1ccccc1NCc1cnc2nc(N)nc(N)c2c1C`: the IC50 against Dihydrofolate reductase [1] was 68.9 nM; in test [2] it was 7.4 nM; in test [3], 7.4 nM; against Dihydrofolate reductase [4], 80.1 nM; against Dihydrofolate reductase [5] it was 80.1 nM; against Dihydrofolate reductase [6], 68.9 nM.
Regarding `COc1ccc(OC)c(NCc2ccc3nc(N)nc(N)c3n2)c1`, the IC50 against Dihydrofolate reductase [1] and against Dihydrofolate reductase [6] was 4400 nM in each case.
With `CN(Cc1ccc2nc(N)nc(N)c2n1)c1ccc(Cl)cc1Cl`, the IC50 against Dihydrofolate reductase [1] and at Dihydrofolate reductase [6] was 500 nM each time.
With `COc1ccc(N(C)Cc2ccc3nc(N)nc(N)c3n2)c(OC)c1`, the IC50 on Dihydrofolate reductase [1] and against Dihydrofolate reductase [6] was 160 nM each time.
On to `COc1cc(-n2ccc3c4c(N)nc(N)nc4nc(=O)c-3c2)cc(OC)c1OC`, for which the IC50 is 4280 nM against Dihydrofolate reductase [1]; 240 nM and 52 nM in test [2]; 240 nM and 52 nM in test [3]; 1120 nM at Dihydrofolate reductase [4]; 1120 nM against Dihydrofolate reductase [5]; 4280 nM on Dihydrofolate reductase [6].
Consider `CN(Cc1ccc2nc(N)nc(N)c2n1)c1c(Cl)cccc1Cl`, for which the IC50 against Dihydrofolate reductase [1] and on Dihydrofolate reductase [6] was 170 nM throughout.
As for `Nc1nc(N)c2cc(NCc3cccc4ccccc34)ccc2n1`, the IC50 against Dihydrofolate reductase [1] was 720 nM; in test [2] it was 99 nM; in test [3], 99 nM; on Dihydrofolate reductase [4] it was 190 nM; against Dihydrofolate reductase [5] it was 190 nM; at Dihydrofolate reductase [6], 720 nM.
`COc1cc(C(C)Nc2cnc3nc(N)nc(N)c3c2)cc(OC)c1OC` (stereo unspecified): in test [3], the IC50 is 182 nM.
In the case of `Nc1nc(N)c2nc(CNc3c(Cl)cccc3Cl)ccc2n1`, the IC50 on Dihydrofolate reductase [1] and against Dihydrofolate reductase [6] was 1000 nM throughout.
Take `COc1ccc(OC)c(N(C)Cc2ccc3nc(N)nc(N)c3n2)c1`: the values for the IC50 (against Dihydrofolate reductase [1]; in test [2]; against Dihydrofolate reductase [6]) were 210 nM, 250 nM and 210 nM, respectively.
Regarding `CN(Cc1ccc2nc(N)nc(N)c2n1)c1ccc(Cl)c(Cl)c1`, the IC50 against Dihydrofolate reductase [1] and on Dihydrofolate reductase [6] was 38 nM throughout.
As to `COc1cc(NCc2cnc3nc(N)nc(N)c3c2C)c(O)cc1-n1cccc1`, the IC50 against Dihydrofolate reductase [1] is 350 nM; in test [2], 33 nM; in test [3], 33 nM; against Dihydrofolate reductase [4], 230 nM; at Dihydrofolate reductase [5], 230 nM; on Dihydrofolate reductase [6] it was 350 nM.
Take `Nc1nc(N)c2nc(CNc3ccc4ccccc4c3)ccc2n1`: the IC50 against Dihydrofolate reductase [1] and against Dihydrofolate reductase [6] was 1600 nM each time.
For the molecule `CN(Cc1cccc2ccccc12)c1ccc2nc(N)nc(N)c2c1`, the IC50 at Dihydrofolate reductase [1] is 17 nM; in test [3], 21 nM; on Dihydrofolate reductase [4], 17 nM; against Dihydrofolate reductase [5], 17 nM; against Dihydrofolate reductase [6], 17 nM.
Regarding `CN(Cc1ccc2nc(N)nc(N)c2n1)c1ccccc1`, the results for the IC50 (against Dihydrofolate reductase [1]; in test [2]; at Dihydrofolate reductase [6]) were 290 nM, 0.84 nM and 290 nM, respectively.
Take `CN(Cc1ccc2nc(N)nc(N)c2n1)c1ccccc1Cl`: the IC50 at Dihydrofolate reductase [1] and on Dihydrofolate reductase [6] was 210 nM throughout.
In the case of `CCN(Cc1cnc2nc(N)nc(N)c2c1C)c1cc(OC)c(OC)c(OC)c1`, the IC50 on Dihydrofolate reductase [1] and on Dihydrofolate reductase [6] was 497 nM throughout.
Take `Nc1nc(N)c2nc(CNc3cc(Cl)c(Cl)c(Cl)c3)ccc2n1`: the results for the IC50 against Dihydrofolate reductase [1] and on Dihydrofolate reductase [6] were 661 nM and 660 nM, respectively.
Regarding `COc1cc(N(C)Cc2ccc3nc(N)nc(N)c3n2)cc(OC)c1OC`, the IC50 against Dihydrofolate reductase [1] was 120 nM; in test [2] it was 44 nM; in test [3], 44 nM; at Dihydrofolate reductase [4], 52 nM; against Dihydrofolate reductase [5], 52 nM; against Dihydrofolate reductase [6], 120 nM.
On to `Cc1c(CN(C)c2ccccc2)cnc2nc(N)nc(N)c12`, for which the IC50 is 30 nM at Dihydrofolate reductase [1]; 6.3 nM in test [2]; 6.3 nM in test [3]; 18 nM against Dihydrofolate reductase [4]; 18 nM against Dihydrofolate reductase [5]; 30 nM at Dihydrofolate reductase [6].
With `Nc1nc(N)c2nc(CNc3cccc(Cl)c3)ccc2n1`, the IC50 against Dihydrofolate reductase [1] and against Dihydrofolate reductase [6] was 2000 nM throughout.
Turning to `Nc1nc(N)c2nc(CSc3ccccc3)ccc2n1`, the IC50 at Dihydrofolate reductase [1] and at Dihydrofolate reductase [6] was 2000 nM in each case.
For `Nc1nc(N)c2nc(CSc3cccc4ccccc34)ccc2n1`, the values for the IC50 against Dihydrofolate reductase [1], at Dihydrofolate reductase [5] and at Dihydrofolate reductase [6] were 470 nM, 252 nM and 470 nM, respectively.
In the case of `COc1cc(NCc2ccc3nc(N)nc(N)c3n2)cc(OC)c1OC`, the IC50 against Dihydrofolate reductase [1] and against Dihydrofolate reductase [6] was 2000 nM in each case.
As to `COc1ccc(N(C)Cc2ccc3nc(N)nc(N)c3n2)cc1OC`, the IC50 was 91 nM against Dihydrofolate reductase [1], 270 nM on Dihydrofolate reductase [5] and 91 nM against Dihydrofolate reductase [6].
Take `COc1cc(N(C)Cc2cnc3nc(N)nc(N)c3c2C)cc(OC)c1OC`: half-maximal inhibition on Dihydrofolate reductase [5] (IC50) was put at 7.21 nM.
In the case of `Nc1nc(N)c2nc(CSc3ccc4ccccc4c3)ccc2n1`, the IC50 against Dihydrofolate reductase [1] and on Dihydrofolate reductase [6] was 380 nM in each case.
Take `COc1ccc(NCc2ccc3nc(N)nc(N)c3n2)c(OC)c1`: the IC50 at Dihydrofolate reductase [1] and on Dihydrofolate reductase [6] was 5500 nM throughout.
Take `Nc1nc(N)c2nc(CNc3ccc(Cl)c(Cl)c3)ccc2n1`: the IC50 at Dihydrofolate reductase [1] and against Dihydrofolate reductase [6] was 410 nM each time.
For `COc1ccc(NCc2ccc3nc(N)nc(N)c3n2)cc1`, the IC50 against Dihydrofolate reductase [1] was 849 nM; on Dihydrofolate reductase [6], 850 nM.
The corresponding values for `Nc1nc(N)c2nc(CNc3cc(Cl)ccc3Cl)ccc2n1` are 1600 nM and 1600 nM.
The corresponding values for `Nc1nc(N)c2nc(CNc3ccccc3)ccc2n1` are 1700 nM and 1700 nM.
Turning to `COc1cc(NNCc2cnc3nc(N)nc(N)c3c2C)c(-n2cccc2)cc1OC`, the IC50 in test [2] was 600 nM; in test [3], 600 nM; against Dihydrofolate reductase [4], 3500 nM; against Dihydrofolate reductase [5], 3500 nM.
On to `COc1cc(OC)c(CNc2cnc3nc(N)nc(N)c3c2)c(OC)c1`, for which, at Dihydrofolate reductase [4], the IC50 came out at 1200 nM. This lies in the single-digit micromolar range.
Consider `CN(Cc1ccc2nc(N)nc(N)c2n1)c1ccc2ccccc2c1`, for which the half-inhibitory concentration (IC50) at Dihydrofolate reductase [1] and on Dihydrofolate reductase [6] was 52 nM each time.
For the molecule `Nc1nc(N)c2nc(CNc3ccc(Cl)cc3Cl)ccc2n1`, the IC50 against Dihydrofolate reductase [1] and at Dihydrofolate reductase [6] was 730 nM each time.
The molecule `COc1cc(CN(C)c2ccc3nc(N)nc(N)c3c2)cc(OC)c1` had an IC50 against Dihydrofolate reductase [1] of 23.3 nM. That is a double-digit nanomolar value.
Consider `COc1cc(CN(C)c2cnc3nc(N)nc(N)c3c2)cc(OC)c1`, for which the IC50 in test [2] and in test [3] was 31 nM in each case.
Turning to `Nc1nc(N)c2nc(CNc3ccccc3Cl)ccc2n1`, the IC50 at Dihydrofolate reductase [1] and on Dihydrofolate reductase [6] was 530 nM throughout.
Regarding `COc1cccc(N(C)Cc2ccc3nc(N)nc(N)c3n2)c1`, the IC50 against Dihydrofolate reductase [1] and on Dihydrofolate reductase [6] was 97 nM in each case.
Turning to `CN(Cc1ccc2nc(N)nc(N)c2n1)c1cccc2ccccc12`, the IC50 at Dihydrofolate reductase [1] and at Dihydrofolate reductase [6] was 40 nM in each case.
`CN(Cc1ccc2nc(N)nc(N)c2n1)c1cc(Cl)ccc1Cl`: the IC50 on Dihydrofolate reductase [1] and against Dihydrofolate reductase [6] was 150 nM each time.

A word on the IC50: it is the concentration needed to halve the response being measured. Low readings indicate greater potency, high ones weaker potency.

For the origin of these results see ChEMBL document CHEMBL1145190, “CoMFA and CoMSIA analyses of Pneumocystis carinii dihydrofolate reductase, Toxoplasma gondii dihydrofolate reductase, and rat liver dihydrofolate reductase” (J Med Chem, 2005).
